Reference: BindingDB's records for patent US12544374 (Novartis, 2026)

What was measured:
[1] = target: T1, Histone-lysine N-methyltransferase EZH2/Polycomb protein EED/Polycomb protein SUZ12 (Human, UniProt O75530+Q15022+Q15910); test: EZH2 LC-MS Assay
Procedure: Representative compounds of the invention were serially and separately diluted 3-fold in DMSO to obtain twelve concentrations. […] Solutions (6 μL) of 80 nM wild type PRC2 (wtPRC2) complex and 60 μM SAM in reaction buffer (20 mM Tris, pH 8.0, 0.1% BSA, 0.01% Triton, 0.5 mM DTT) were added to the wells that were then incubated with the test compound for 20 min. A 6 μL solution of 3 μM of the substrate peptide H3K27me1 (histone H3[21-44]-K27me1-biotin) and 6 μM regulatory peptide H3K27me3 (histone H3[21-44]-K27me3) in reaction buffer was added to initiate each reaction. […] The data were fit to a dose response equation using the program Helios to get the IC50 values of the test compound.

[2] = target: T1, Histone-lysine N-methyltransferase EZH2/Polycomb protein EED/Polycomb protein SUZ12; test: ELISA Assay
Procedure: ELISA protocol: Cell lysates were transferred to the wells of a 384-well plate and the final volume was adjusted to 50 μL per well with PBS. The plate was sealed, centrifuged at 2,000 rpm for 2 min and incubated at 4° C. for about 16 h. The plate was washed with TBST buffer (1×TBS (10×TBS: 24.2 g Tris (Sigma, T6066), 80 g NaCl (Sigma, S3014) to 1 L of water and adjust pH to 7.6 with HCl) with 0.1% Tween-20). Blocking buffer (TBST, 5% BSA; 50 μL per well) was added and the plate was incubated for 1 h at rt. The blocking buffer was removed and primary antibody was added (30 μL per well). […] The primary antibody was incubated in the plate at rt for 1 h. The wells were washed with TBST and incubated with secondary antibody for 1 h at rt.

T1 sequence (Q15910 whole entry): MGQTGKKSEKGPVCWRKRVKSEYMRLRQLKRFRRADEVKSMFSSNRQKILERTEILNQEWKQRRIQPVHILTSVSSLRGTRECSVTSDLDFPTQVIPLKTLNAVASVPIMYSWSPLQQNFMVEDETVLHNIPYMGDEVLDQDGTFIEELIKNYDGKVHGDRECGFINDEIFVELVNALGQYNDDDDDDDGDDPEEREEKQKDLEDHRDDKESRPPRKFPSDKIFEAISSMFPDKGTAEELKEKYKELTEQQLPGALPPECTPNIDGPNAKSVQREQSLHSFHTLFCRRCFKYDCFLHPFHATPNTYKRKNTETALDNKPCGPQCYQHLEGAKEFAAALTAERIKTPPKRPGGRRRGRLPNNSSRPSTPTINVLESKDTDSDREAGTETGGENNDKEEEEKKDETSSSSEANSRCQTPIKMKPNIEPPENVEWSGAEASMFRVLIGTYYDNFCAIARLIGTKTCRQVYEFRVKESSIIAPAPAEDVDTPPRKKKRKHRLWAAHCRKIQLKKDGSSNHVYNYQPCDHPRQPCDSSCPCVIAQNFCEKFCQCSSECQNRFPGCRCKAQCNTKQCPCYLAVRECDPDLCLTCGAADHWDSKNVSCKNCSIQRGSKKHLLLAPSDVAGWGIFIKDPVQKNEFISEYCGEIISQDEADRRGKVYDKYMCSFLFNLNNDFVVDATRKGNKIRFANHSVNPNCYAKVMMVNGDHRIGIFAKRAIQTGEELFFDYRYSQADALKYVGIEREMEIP
T1 sequence (O75530 whole entry): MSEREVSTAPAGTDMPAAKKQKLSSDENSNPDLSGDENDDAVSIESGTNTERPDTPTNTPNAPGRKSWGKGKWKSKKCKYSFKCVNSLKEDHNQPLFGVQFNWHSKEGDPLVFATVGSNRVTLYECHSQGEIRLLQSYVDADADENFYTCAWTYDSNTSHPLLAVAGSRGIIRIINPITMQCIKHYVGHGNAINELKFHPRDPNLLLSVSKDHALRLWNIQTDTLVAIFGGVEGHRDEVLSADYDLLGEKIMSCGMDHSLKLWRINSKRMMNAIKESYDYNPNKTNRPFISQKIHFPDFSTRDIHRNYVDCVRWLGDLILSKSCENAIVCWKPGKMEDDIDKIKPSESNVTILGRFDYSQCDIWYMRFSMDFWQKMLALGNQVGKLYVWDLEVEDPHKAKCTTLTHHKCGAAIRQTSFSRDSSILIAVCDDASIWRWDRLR
T1 sequence (Q15022 whole entry): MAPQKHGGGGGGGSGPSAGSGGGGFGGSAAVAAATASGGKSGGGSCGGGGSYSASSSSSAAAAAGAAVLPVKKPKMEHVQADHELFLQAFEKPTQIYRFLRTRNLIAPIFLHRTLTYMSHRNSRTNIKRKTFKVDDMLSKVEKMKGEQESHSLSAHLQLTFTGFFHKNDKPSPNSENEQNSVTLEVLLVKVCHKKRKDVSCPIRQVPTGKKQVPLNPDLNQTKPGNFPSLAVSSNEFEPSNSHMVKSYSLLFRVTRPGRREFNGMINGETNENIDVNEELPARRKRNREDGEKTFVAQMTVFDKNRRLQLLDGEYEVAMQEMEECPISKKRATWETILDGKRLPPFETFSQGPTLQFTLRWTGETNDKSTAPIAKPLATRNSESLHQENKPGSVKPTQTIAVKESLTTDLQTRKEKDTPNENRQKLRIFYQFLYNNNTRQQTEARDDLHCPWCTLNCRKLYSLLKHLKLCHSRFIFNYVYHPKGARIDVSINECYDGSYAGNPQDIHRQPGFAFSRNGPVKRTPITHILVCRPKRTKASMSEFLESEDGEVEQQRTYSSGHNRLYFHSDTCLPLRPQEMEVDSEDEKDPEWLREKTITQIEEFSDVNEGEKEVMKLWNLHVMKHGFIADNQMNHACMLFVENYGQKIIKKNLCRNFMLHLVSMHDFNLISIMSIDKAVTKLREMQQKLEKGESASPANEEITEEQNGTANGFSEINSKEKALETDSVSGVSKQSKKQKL

| IC50 [1] | IC50 [2] | Compound |
| --- | --- | --- |
| 15 nM | 27 nM | COCCOC(=O)Nc1cnc(NCC2CCC(Nc3ccc4ccnc(Cl)c4n3)CC2)nc1 (stereo not drawn) [US12544374, Compound C16] |
| 27 nM | – | Clc1nccc2ccc(NC3CCC(CNc4ncc(COC5COC5)cn4)CC3)nc12 (stereo not drawn) [US12544374, Compound C35] |
